Values quoted from earlier work in US20080166420A1, “Krill Oil Compositions” (priority 2007, published 2008).

O=C(O)c1cccnc1 [Niacin, niacin]
C-reactive protein (CRP) (clinically shown): reduce
high density lipoproteins (clinically shown): significant increase
lipoprotein (a) (clinically shown): significant reduction
low density lipoproteins (clinically shown): reduction
total cholesterol (clinically shown): reduction
triglycerides (clinically shown): significant reduction
fibrinogen (in vivo): reduce
